# Test results from patent US8158682B2, “Instillation administration of capsaicinoids for the treatment of pain” (Vallinex, Inc., priority 2008, dated 2012).
# Where “and” joins values, the source holds several entries; their conditions need not be identical. Identical values can stand only once. Entries after “also recorded” stand apart in the source; their conditions may differ.
# Columns and labels:
# [1] = tested on: osteotomy site; assay: Femur osteotomy: histology and biomechanical testing (4-point bending); assay type: in vivo, rat
# Protocol: (§1) Adult CD Charles River rats were anesthetized with isoflurane and oxygen. Extrafascicular instillation: The sciatic nerve was exposed by blunt dissection and 100 μl of test article was applied directly to the sciatic nerve). Treatment groups received either vehicle (25% PEG 300), 0.0083 mg capsaicin (≧98% pure) or 0.025 mg capsaicin dissolved in vehicle. […] Osteotomy: The lateral aspect of the right femur was exposed and cut at the midshaft using an oscillating saw. An intramedullary Kirshner wire was inserted for fracture reduction and the osteotomy site irrigated with 100 μl of the vehicle (20% PEG 300, 10 mM histidine and 5% (w/v) sucrose) or 0.5 mg capsaicin diluted in vehicle.
# (§2) Histology: Rats were euthanized by intraperitoneal injection of sodium pentobarbital (90 mg/Kg) followed by transcardiac perfusion with 0.9% saline then 3% paraformaldehyde and 3% glutaraldehyde in 0.1 M phosphate buffer. The entire length of sciatic nerve was embedded in paraffin or plastic and representative sections were taken from the treatment site and proximal and distal sites and stained with hematoxylin and eosin (H&E). Sections were scored for neuronal and myelin integrity, appearance and inflammation.
# Biomechanical Testing: Both osteotomized and contralateral whole femurs were tested in 4-point bending with a servohydrolic material test system (858 Mini Bionix) to determine the material properties of the cortical bone. Peak load, energy to break (area under the curve) and stiffness were derived. Peak load was measured as the maximum height of the load-displacement curve, and stiffness was measured as the slope of the linear portion of the load-displacement curve.
# (§3) Statistics: Levene's test was used to assess homogeneity of group variances for each specified end point and for each data collection interval. If Levene's test was not significant (P>0.01), a pooled estimate of the variance (Means Square Error) was computed from a one-way analysis of variance (ANOVA) and utilized by Dunnett's comparison of each treatment group with the control group. If Levene's test was significant (P<0.01), comparisons with the control group were made using Welch's t-test with a Bonferroni correction.
# [2] = cited from earlier work
# [3] = tested on: rat paw incision model; assay: Rat paw incision model, postsurgical thermal hyperalgesia (thermal paw withdrawal latency); assay type: in vivo; details: for ED10 / ED20 / ED50: analgesic intensity, thermal hyperalgesia; for ED50: 5 minute intraoperative instillation
# Protocol: (§4) Male Sprague-Dawley rats (Chrales River Laboratories, Inc., Wilimington, Mass., 225-250 g) were anesthetized with 2% isoflurane delivered via nose cone. Ten to 15 minutes before surgery, 100 μL of 2% lidocane was injected in the plantar surface of the right hind paw. A 1 centimeter incision (number 15 scalpel blade) was make through the skin, muscle, and fascia of the anesthetized paw, starting 5 mm from the proximal edge of the heel and extending toward the toes. After elevating the incised tissue, 20 μL of capsaicin formulation or vehicle were instilled into the surgical incision, allowed to dwell for pre-specified times, and then removed via aspiration using a cotton swab. The incision was apposed with 4 single interrupted mattress sutures of 5-0 nylon thread.
# (§5) Animals were tested on the day before surgery (baseline) and on days 1, 2, 3, and 6 after surgery. Thermal sensitivity was assessed by thermal paw withdrawal latency as described by Hargreaves et al. (Hargreaves et al., J. Pain 32:77-88 (1988)). Mechanical hyperalgesia was assessed by the “up-down” algorithm of Chaplan et al. (Chaplan et al., J. Neurosci. Methods 53:55-63 (1994)).
# (§6) In this study, animals in the active treatment groups received an intraoperative instillation of capsaicin (5 μg per 20 μL 50% PEG-300) for the designated times. Animals in the control groups received 20 μL of 50% PEG-300 for 5 minutes (vehicle) or no intraoperative treatment (sham). Graph points represent mean values; error bars are ±SEM.
# (§7) In the study, animals in the active treatment groups received 5 minute intraoperative instillations of capsaicin formulation (1.5 μg to 150 μg per 20 μL of 50% PEG-300). Animals in the control groups received 5 minute intraoperative instillations of 20 μL of 50% PEG-300 (vehicle) or 5 minute intraoperative instillations of 20 μL of 50% PEG-300 plus subcutaneous buprenorphine (50 μg/kg) 1 hour before behavioral testing (Bup). Bars represent mean values; error bars are ±SEM.
# The experimental data from FIG. 2 were used to calculate analgesic intensity (AI) as follows: AI(%)=100×([PWLtreat−PWLbasal]/[cut-off−PWLbasal]), where PWLtreat was the paw withdrawal latency after capsaicin treatment, PWLbasal was the paw withdrawal latency on day 1 after vehicle treatment, and cut-of was 20 seconds. […] (CI=confidence interval)
# [4] = tested on: rat paw incision model; assay: Rat paw incision model, postsurgical mechanical hyperalgesia (paw withdrawal threshold, up-down); assay type: in vivo
# Protocol: as §4, §5
# as §6, with “(vehicle).” for “(vehicle) or no intraoperative treatment (sham).”
# as §7, with “In this” for “In the”, “capsaicin (5, 15, or 75” for “capsaicin formulation (1.5 μg to 150”, “or subcutaneous injection” for “or 5 minute intraoperative instillations”, “of” for “of 20 μL of 50% PEG-300 plus subcutaneous”
# In this study, animals in the active treatment groups received 5 minute intraoperative instillations of capsaicin (5, 15, or 75 μg per 20 μL of 50% PEG-300). Animals in the control groups received 5 minute intraoperative instillations of 20 μL of 50% PEG-300 (vehicle). Graph points represent mean values; error bars are ±SEM.
# [5] = tested on: sciatic nerve; assay: Extrafascicular instillation on sciatic nerve: body weight, behavioral testing, nerve histology; assay type: in vivo, rat
# Protocol: as §1
# Behavioral testing: Individual rats were placed in a black plexiglass observation box and parameters including posture, rearing, vocalization, bizarre behavior, mobility, and stereotypy were evaluated based on the methods of Moser et al. (Moser et al., Fundam. Appl. Toxicol. 11: 189-206 (1988)). Forelimb and hindlimb grip strength was measured using a strain gauge that recorded the maximum force in Kg as described by Meyer (Meyer et al. Neurobehav. Toxicol. 1:233-236 (1979) and Meyer and Ross (1966) U.S. Environmental Protection Agency, Wasington, D.C.) Hindlimb splay was quantitatively measured as described by Edwards et al. (Edwards et al., Toxicol Appl. Pharmacol. 40:589-591 (1977)). Thermal response was measured using the hot plate test as previously described by Ankier (Aniker Eur. J. Pharmacol. 27:1-4 (1974). The hot plate was set at 52° C. and the latency between placement of the animal on the heated surface and the first paw lick was recorded. The test was administered three times at predose and at days 3, 14 and 28 post-surgery and the values averaged.
# as §2, §3
# [6] = 0.5 mg, right femur, vs vehicle (FIG. 14)
# [7] = intraoperative instillation, rat paw incision model
smiles,measurement,setting,value
"COc1cc(CNC(=O)CCCC/C=C/C(C)C)ccc1O [capsaicin, N-(4-hydroxy-3-methoxybenzyl)-8-methylnon-trans-6-enamide]",osteotomy site histology (H&E),[1]; 0.5 mg vs vehicle (FIG. 13),show no differences
same,"general integrity of bone structure (AUC, energy to break)",[1]; [6],no difference
same,peak load,[1]; [6],no difference
same,stiffness,[1]; [6],no difference
same,adverse effects on wound and bone healing following osteotomy,"[1]; instillation, summary",no observable adverse effects
same,solubility in organic solvents,"[2]; alcohol, ether, benzene and chloroform",freely soluble
same,solubility in water,[2]; water,practically insoluble
same,dose dependence of reduction of postsurgical thermal hyperalgesia,"[3]; 1.5 μg to 150 μg per 20 μL 50% PEG-300, 5 minute instillation (FIG. 2)",dose-dependant; also recorded: dose-dependent
same,postsurgical thermal hyperalgesia (PWL),"[3]; 5 μg per 20 μL 50% PEG-300, instillation 5 or 10 minutes, post-surgical days 1, 2, 3, vs vehicle and sham (FIG. 1)",significantly lower thermal hyperalgesia; also recorded: reduces postsurgical thermal hyperalgesia
same,ED10,[3]; day 1 after surgery,3.46 µg
same,ED20,[3]; day 1 after surgery,7.77 µg
same,ED50,[3]; day 1 after surgery,31.01 µg
same,ED10,[3]; day 2 after surgery,2.99 µg
same,ED20,[3]; day 2 after surgery,8.38 µg
same,ED50,[3]; day 2 after surgery,48.53 µg
same,ED10,[3]; day 3 after surgery,1.84 µg
same,ED20,[3]; day 3 after surgery,6.09 µg
same,ED50,[3]; day 3 after surgery,47.09 µg and 47.08 µg
same,duration of sustained analgesia,[3]; [7],up to 6 days
same,potency against thermal versus mechanical hyperalgesia,[3]; [7],higher potency against postsurgical thermal hyperalgesia than mechanical hyperalgesia
same,postsurgical mechanical hyperalgesia (PWT),"[4]; 5 μg per 20 μL 50% PEG-300, designated dwell times (FIG. 4)",did not reduce postsurgical mechanical hyperalgesia; also recorded: does not reduce postsurgical mechanical hyperalgesia
same,postsurgical mechanical hyperalgesia (PWT),"[4]; 75 μg, 5 minute instillation, vs vehicle (FIG. 5)",produced significant analgesic effects relative to vehicle; also recorded: reduces postsurgical mechanical hyperalgesia
same,postsurgical mechanical hyperalgesia (PWT) over time,"[4]; 75 μg, 5 minute instillation, vs vehicle, days 1 and 3 (FIG. 6)",greater after an instillation of 75 μg capsaicin formulation than vehicle; also recorded: reduces postsurgical mechanical hyperalgesia
same,dose dependence of reduction of postsurgical mechanical hyperalgesia,"[4]; 5, 15 or 75 μg per 20 μL 50% PEG-300, 5 minute instillation (FIG. 5)",dose-dependant
same,"sciatic nerve histology (H&E), appearance","[5]; 0.025 mg extrafascicular instillation, 3 days or 28 days post treatment, vs sham operated (FIG. 12)",no difference in appearance
same,activity/arousal,[5]; extrafascicular instillation (FIG. 8),does not effect activity/arousal
same,hindpaw splay,[5]; extrafascicular instillation (FIG. 10),no effect on hindpaw splay
same,"thermal withdrawal (hot plate, 52° C.)",[5]; extrafascicular instillation (FIG. 11),no effect on thermal withdrawal
same,adverse effects on structural integrity of exposed nerve,"[5]; extrafascicular instillation, summary",no observable adverse effects
same,weight gain,"[5]; extrafascicular instillation, first 10 post-operative days, vs sham-operated rats (FIG. 7)",reduces weight gain
same,hindpaw grip strength,"[5]; extrafascicular instillation, post operative days 3 and 14 (FIG. 9)",decreases hindpaw grip strength
